Results reported in patent US20230399312A1, “SUBSTITUTED PYRIMIDINES AND METHODS OF USE” (THERAVANCE BIOPHARMA R&D IP, LLC, priority 2020, published 2023).

Key:
[1] = biological target: T1, recombinant human ALK5 (TGF-βR1) protein (Homo sapiens, UniProt P36897); assay: Biochemical ALK5 (TGF-βR1) assay to measure pKi (LANCE Ultra ULight kinase assay); conditions: apparent pKi, converted from pIC50 by Cheng-Prusoff
T1 construct: purchased Life Technologies PR9075A
T1 sequence (P36897 34-503): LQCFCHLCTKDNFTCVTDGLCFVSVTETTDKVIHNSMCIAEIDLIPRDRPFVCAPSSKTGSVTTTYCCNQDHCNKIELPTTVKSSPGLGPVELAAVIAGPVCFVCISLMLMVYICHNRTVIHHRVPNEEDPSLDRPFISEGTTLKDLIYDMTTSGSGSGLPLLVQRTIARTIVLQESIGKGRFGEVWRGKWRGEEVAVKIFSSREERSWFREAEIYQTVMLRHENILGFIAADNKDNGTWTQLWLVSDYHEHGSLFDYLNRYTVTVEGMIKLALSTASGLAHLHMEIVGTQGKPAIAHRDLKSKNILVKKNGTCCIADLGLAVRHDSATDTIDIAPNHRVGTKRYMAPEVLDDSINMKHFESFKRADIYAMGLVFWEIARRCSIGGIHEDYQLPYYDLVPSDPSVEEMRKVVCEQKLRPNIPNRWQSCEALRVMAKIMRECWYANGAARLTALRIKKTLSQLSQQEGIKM
Procedure: The assays were performed in a 384-well plate (24 columns×16 wells/rows). An Echo®550 Liquid Handler (Labcyte) was used to prepare various intermediate concentrations of compounds of the present disclosure in 100% DMSO. From the intermediate concentrations, a range of concentrations (from […] to 25 μM corresponding to volumes up to 105 nL) were prepared and ejected into a final assay plate to be used to create individual dose response curves for each of the subject compounds. To a separate column within the assay plate, 105 nL of DMSO in each well was used to establish a maximum assay signal. Additionally, 105 nL of 100 μM SD-208, a selective TGF-βR1 inhibitor (Catalog #S7624, Selleck Chemicals), was used in another column of wells to establish a minimal assay signal.
With a multidrop dispenser, 8 μL of enzyme mixture (1.25× final) was added to each well. […] The plate was then sealed with an adhesive seal and allowed to equilibrate for 60 minutes at room temperature.
Next, 2 μL of 125 μM ATP (5×final, 125 μM ATP prepared in assay buffer with 2 mM DTT) was added to the incubated mixtures, covered with a MicroClime® Environmental Lid (Product No. LLS-0310, Labcyte) and immediately transferred to 37° C. The reactions were allowed to proceed at 37° C. for 60 minutes before terminating with the addition of 10 μL of detection antibody (LANCE® (lanthanide chelate excite) Ultra Europium-anti-phospo-DNA Topoisomerase 2-alpha (Thr1342)) in detection mixture (12 mM EDTA, 4 nM detection antibody prepared in detection buffer (50 mM Tris-HCl, 150 mM NaCl, 0.5% BSA (Fraction V), pH 7.0)) at room temperature. The plate was then read on a Perkin Elmer EnVision Plate Reader using europium specific reader settings with excitation and emission wavelengths set to 320 or 340 nm and 665 nm, respectively.
For dose-response analyses, percent inhibition versus compound concentrations were plotted, and pIC50 values were determined from a 4-parameter robust fit model with GraphPad Prism V5 Software (GraphPad Software, Inc., La Jolla, CA). This model obtains pIC50 values by fitting the sigmoidal dose-response (variable slope) equation to the data. Results were expressed as pIC50 (negative logarithm of IC50) and subsequently converted to pKi (negative logarithm of dissociate constant, Ki) using the Cheng-Prusoff equation. The higher the value of pKi (lower value of Ki), the greater the inhibition of ALK5 activity.

[2] = test system: TGF-β-stimulated SMAD3 phosphorylation in BEAS-2B cells; assay: Cellular ALK5 potency assay, inhibition of TGF-β stimulated pSMAD3 formation in BEAS-2B cells; assay type: cell-based; conditions: Homo sapiens, pSMAD3, TGF-β 10 ng/mL, read-out: BEAS2B pIC50 (converted)
Procedure: The potency of compounds of the present disclosure for inhibition of TGF-β-stimulated SMAD3 phosphorylation was measured in BEAS-2B cells, a human lung epithelial cell line. TGF-β signals through activin receptor-like kinase 5 (ALK5) immediately prior to SMAD3 phosphorylation.
BEAS-2B cells were grown using 50% DMEM (Life Technologies) and 50% F-12 (Life Technologies) media, supplemented with 10% Fetal Bovine Serum (ATCC), 25 mM HEPES (Life Technologies), and 1×Pen-Strep (Life Technologies). Cells were cultured in a humidified incubator set at 37° C., 5% CO2, and trypsonized using 0.25% Trypsin with 0.5% polyvinylpyrrolidone (PVP).
For the assay, BEAS-2B cells were seeded at 7,500 cells/well (25 μL/well) in a 384-well plate and cultured overnight. Before dosing, growth media was aspirated and the wells were rinsed with HBSS Buffer (HBSS with Calcium and Magnesium, Life Technologies) supplemented with 25 mM HEPES (Life Technologies) and 1% Bovine Serum Albumin (Roche). Compounds were serially diluted in DMSO, then further diluted with supplemented HBSS Buffer (50 μL/well) to create a compound plate 3× of the final assay concentration, at 0.3% DMSO. The diluted compounds were then added to the cells (8 μL/well) and incubated at 37° C., 5% CO2 for 1 hour. After the compound incubation, TGF-β (R&D Systems) reconstituted in supplemented HBSS Buffer was added to the cells ([…], final concentration 10 ng/mL) and incubated for a further 30 minutes, after which the cells were immediately lysed with AlphaLISA lysis buffer (PerkinElmer). AlphaLISA Acceptor and Detector beads (PerkinElmer) were added 2 hours apart, then incubated overnight to be read the next day. The potency of the compound was determined through analysis of dose-dependent quantified changes in pSMAD3 signal from baseline (non-compound treated TGF-β stimulated cells). Data are expressed as pIC50 (negative decadic logarithm IC50) values.

Ki [1] [nM] | SMILES | IC50 [2] [nM]
0.0398 to 0.316 | Cc1cccc(-c2nccc(Nc3ccnc(Nc4ccc5c(c4)CC4(CCNC4)C5)n3)n2)n1 (centres unmarked) [Compound 277, N2-(1,3-dihydrospiro[indene-2,3′-pyrrolidin]-5-yl)-N4-(2-(6-methylpyridin-2-yl)pyrimidin-4-yl)pyrimidine-2,4-diamine] | 25.1 to 158
0.0398 to 0.316 | Cc1cccc(-c2nccc(Nc3ccnc(Nc4ccc(S(=O)(=O)N5CCN(C(C)(C)C)CC5)cc4)n3)n2)n1 [Compound 264, N2-[4-(4-tert-butylpiperazin-1-yl)sulfonylphenyl]-N4-[2-(6-methyl-2-pyridyl)pyrimidin-4-yl]pyrimidine-2,4-diamine] | 25.1 to 158
0.0398 to 0.316 | Cc1cccc(-c2nccc(Nc3ccnc(Nc4csc(C(=O)OC[C@H]5CCCCN5)c4)n3)n2)n1 [Compound 588, [(2R)-2-piperidyl]methyl 4-[[4-[[2-(6-methyl-2-pyridyl)pyrimidin-4-yl]amino]pyrimidin-2-yl]amino]thiophene-2-carboxylate] | 25.1 to 158
0.0398 to 0.316 | Cc1cccc(-c2nccc(Nc3ccnc(Nc4ccc(NCC5CNC5)cc4)n3)n2)n1 [Compound 537, N2-(4-((azetidin-3-ylmethyl)amino)phenyl)-N4-(2-(6-methylpyridin-2-yl)pyrimidin-4-yl)pyrimidine-2,4-diamine] | 25.1 to 158
0.0398 to 0.316 | CC(=O)N1CCN(c2cccc(Nc3nccc(Nc4ccnc(-c5cccc(C)n5)n4)n3)c2)CC1 [Compound 190, 1-[4-[3-[[4-[[2-(6-methyl-2-pyridyl)pyrimidin-4-yl]amino]pyrimidin-2-yl]amino]phenyl]piperazin-1-yl]ethanone] | 25.1 to 158
0.0398 to 0.316 | Cc1cccc(-c2nccc(Nc3ccnc(Nc4nc(C5=CCNC5)cs4)n3)n2)n1 [Compound 626, N2-[4-(2,5-dihydro-1H-pyrrol-3-yl)thiazol-2-yl]-N4-[2-(6-methyl-2-pyridyl)pyrimidin-4-yl]pyrimidine-2,4-diamine] | 25.1 to 158
0.0398 to 0.316 | Cc1cccc(-c2nccc(Nc3ccnc(Nc4ccc(N5CCN(C6CCOC6=O)CC5)cc4)n3)n2)n1 (centres unmarked) [Compound 365, 3-[4-[4-[[4-[[2-(6-methyl-2-pyridyl)pyrimidin-4-yl]amino]pyrimidin-2-yl]amino]phenyl]piperazin-1-yl]tetrahydrofuran-2-one] | ≤ 20
0.0398 to 0.316 | Cc1cccc(-c2nccc(Nc3ccnc(Nc4ccc(N5CCN(C(CCO)C(=O)O)CC5)cc4)n3)n2)n1 (centres unmarked) [Compound 448, 4-hydroxy-2-[4-[4-[[4-[[2-(6-methyl-2-pyridyl)pyrimidin-4-yl]amino]pyrimidin-2-yl]amino]phenyl]piperazin-1-yl]butanoic acid] | 25.1 to 158
0.0398 to 0.316 | COC[C@H]1CN(Cc2ccc(Nc3nccc(Nc4ccnc(-c5cccc(C)n5)n4)n3)cc2)CCN1 [Compound 64, N2-[4-[[(3R)-3-(methoxymethyl)piperazin-1-yl]methyl]phenyl]-N4-[2-(6-methyl-2-pyridyl)pyrimidin-4-yl]pyrimidine-2,4-diamine] | 25.1 to 158
0.0398 to 0.316 | Cc1cccc(-c2nccc(Nc3ccnc(Nc4ccc(N5CCNC(C)C5)cc4)n3)n2)n1 (racemic) [Compound 528, N4-[2-(6-methyl-2-pyridyl)pyrimidin-4-yl]-N2-[4-[rac-(3S)-3-methylpiperazin-1-yl]phenyl]pyrimidine-2,4-diamine] | 
0.0398 to 0.316 | Cc1cccc(-c2nccc(Nc3ccnc(Nc4ccc(CN5CC(CO)C5)cc4)n3)n2)n1 [Compound 266, [1-[[4-[[4-[[2-(6-methyl-2-pyridyl)pyrimidin-4-yl]amino]pyrimidin-2-yl]amino]phenyl]methyl]azetidin-3-yl]methanol] | 
3.98 to 31.6 | Cc1cccc(-c2nccc(Nc3ccnc(Nc4ncc(N5CCNCC5)s4)n3)n2)n1 [Compound 640, N4-[2-(6-methyl-2-pyridyl)pyrimidin-4-yl]-N2-(5-piperazin-1-ylthiazol-2-yl)pyrimidine-2,4-diamine] | 
3.98 to 31.6 | COC(=O)c1ccc(Nc2nccc(Nc3nc(-c4cccc(C)n4)ncc3C(=O)OC)n2)cc1 [Compound 1043, methyl 4-[[2-(4-methoxycarbonylanilino)pyrimidin-4-yl]amino]-2-(6-methyl-2-pyridyl)pyrimidine-5-carboxylate] | 
 | Cc1cccc(-c2ncc(C(=O)O)c(Nc3ccnc(Nc4ccc(N)cc4)n3)n2)n1 [Compound 26, 4-[[2-(4-aminoanilino)pyrimidin-4-yl]amino]-2-(6-methyl-2-pyridyl)pyrimidine-5-carboxylic acid] | 1580 to 10000
3.98 to 31.6 | CNC(=O)Cc1cc(Nc2ccnc(Nc3ccc(N4CCNCC4)cc3)n2)nc(-c2cccc(C)n2)n1 [Compound 1008, N-methyl-2-[2-(6-methyl-2-pyridyl)-6-[[2-(4-piperazin-1-ylanilino)pyrimidin-4-yl]amino]pyrimidin-4-yl] acetamide] | 
0.398 to 3.16 | Cc1cccc(-c2ncc(C(=O)O)c(Nc3ccnc(Nc4ccc(N)cc4)n3)n2)n1 [Compound 1044, 4-[[2-(4-aminoanilino)pyrimidin-4-yl]amino]-2-(6-methyl-2-pyridyl)pyrimidine-5-carboxylic acid] | 
 | CNC(=O)Cc1cc(Nc2ccnc(Nc3ccc(N4CCNCC4)cc3)n2)nc(-c2cccc(C)n2)n1 [Compound 309, N-methyl-2-[2-(6-methyl-2-pyridyl)-6-[[2-(4-piperazin-1-ylanilino)pyrimidin-4-yl]amino]pyrimidin-4-yl]acetamide] | 200 to 1260
 | Cc1cccc(-c2nccc(Nc3ccnc(Nc4ccc(N5CCNC(C)C5)cc4)n3)n2)n1 (racemic) [Compound 7, N4-[2-(6-methyl-2-pyridyl)pyrimidin-4-yl]-N2-[4-[rac-(3R)-3-methylpiperazin-1-yl]phenyl]pyrimidine-2,4-diamine] | 25.1 to 158
 | COC(=O)c1ccc(Nc2nccc(Nc3nc(-c4cccc(C)n4)ncc3C(=O)OC)n2)cc1 [Compound 468, methyl 4-[[2-(4-methoxycarbonylanilino)pyrimidin-4-yl]amino]-2-(6-methyl-2-pyridyl) pyrimidine-5-carboxylate] | 200 to 1260
≤ 0.0316 | Cc1cccc(-c2nccc(Nc3ccnc(Nc4ccc(CN5CC[C@@H](O)C5)cc4)n3)n2)n1 [Compound 319, (3R)-1-[[4-[[4-[[2-(6-methyl-2-pyridyl)pyrimidin-4-yl]amino]pyrimidin-2-yl]amino]phenyl]methyl] pyrrolidin-3-ol] | 
